In assay [1] the test system is 5α-reductase. Put plainly: 5α-reductase assay of Moore and Wilson, with or without preincubation of enzyme with inhibitor and NADPH. Type of assay: biochemical. The note with it: for potency as inhibitor of the enzyme relative to progesterone: assay of Moore and Wilson; for Picomol Testosterone reduced/mg protein in 45 min + SEM: assay 45 min: inhibitor 5 × 10^-8, testosterone 5 × 10^-8, NADPH 5 × 10^-4 M; for manner of combination with / inactivation of the enzyme: in the presence of the co-factor NADPH; for Picomol Testosterone Reduced/mg protein in 45 min: assay 45 min: progesterone 5 × 10^-8, NADPH 5 × 10^-4, testosterone 5 × 10^-8. From the text:
Employing the assay of R. J. Moore and J. D. Wilson [Methods in Enzymology, Vol. XXXVI, Academic Press, N.Y., Ed. W. O'Malley and G. Hardman, p.

The test system of assay [2] is 5α-reductase. The note with it: well-known, prior art; cited from earlier work.
The subject of another assay is sebum secretion. The conditions noted are these: topical administration of a 0.5% solution in aqueous ethanol; cited from earlier work.
The subject of assay [3] is 5α-reductase in cell-culture preparations of human prostate. The conditions noted are these: cited from earlier work.
For assay [4], the system named is 5α-reductase. The conditions noted are these: preparations of human benign prostatic hypertrophic tissue; cited from earlier work.

Results on three compounds are retold here after patent US4396615A, “Method of treating androgen-related disorders” (Duke University, priority 1981, dated 1983).

A word on the Ki: it is a dissociation constant, usually derived from enzyme kinetics or from competition with a known ligand.

The structures appear in SMILES notation. Where “and” joins values, the source holds several entries; their conditions need not be identical. Equal entries are not always repeated.

Take `C=C1C[C@H]2[C@@H]3CC[C@H](C(C)=O)[C@@]3(C)CC[C@@H]2[C@@]2(C)CCC(=O)C=C12` [6-methyleneprogesterone]: the “potency as inhibitor of the enzyme relative to progesterone” value with 5α-reductase [1] is listed as “equipotent with progesterone”.

Regarding `C=C1C[C@@H]2[C@H](CC[C@@]3(C)[C@H]2CC[C@]3(OC(C)=O)C(C)=O)[C@@]2(C)CCC(=O)C=C12` [17α-acetoxy-6-methyleneprogesterone], the “Picomol Testosterone reduced/mg protein in 45 min + SEM” value is 0.71 ± 0.018 Picomol Testosterone reduced/m with 5α-reductase [1] (A: preincubation 15 min with inhibitor 5 × 10^-7 M and NADPH 6 × 10^-5 M); 3.0 ± 0.26 Picomol Testosterone reduced/m with 5α-reductase [1] (B: preincubation 15 min with inhibitor 0 and NADPH 6 × 10^-5 M); 2.83 ± 0.09 Picomol Testosterone reduced/m in the assay with 5α-reductase [1] (C: preincubation 15 min with inhibitor 0 and NADPH 0); 2.63 ± 0.18 Picomol Testosterone reduced/m in the assay on 5α-reductase [1] (D: preincubation 15 min with inhibitor 5 × 10^-7 M and NADPH 0); 3.14 ± 0.20 Picomol Testosterone reduced/m in the assay with 5α-reductase [1] (F: no preincubation). The “potency as inhibitor of the enzyme relative to progesterone” value with 5α-reductase [1] is recorded as “equipotent with progesterone”. For the same compound, the Ki on 5α-reductase [1] (first phase, from plot of t1/2 against 1/[Inhibitor] (FIG. 2), read-out: Ki of reversible combination of enzyme and inhibitor) was 1250 nM. The “manner of combination with / inactivation of the enzyme” value with 5α-reductase [1] was “irreversible manner”. Moreover, in the assay with 5α-reductase [1] (incubation of enzyme with NADPH and inhibitor (FIG. 1)), the “time course of inactivation of the enzyme” value is “pseudo first-order kinetics”. Further, in the assay with 5α-reductase [1] (preincubation of enzyme with compound and NADPH, diluted tenfold, then assayed), the enzyme activity lost worked out at 75%. At 5α-reductase [1] (second phase, enzyme-inhibitor complex rendered inactive), the “rate constant of irreversible combination (kcat)” value came out at 0.0048 s⁻¹.

As for `CC(=O)[C@H]1CC[C@H]2[C@@H]3CCC4=CC(=O)CC[C@]4(C)[C@H]3CC[C@]12C` [progesterone], the “Picomol Testosterone Reduced/mg protein in 45 min” value with 5α-reductase [1] (1: preincubation 15 min with progesterone 0 and NADPH 6 × 10^-5) was 3.91 Picomol Testosterone Reduced/m and 3.41 Picomol Testosterone Reduced/m; in the assay on 5α-reductase [1] (2: preincubation 15 min with progesterone 5 × 10^-7 and NADPH 6 × 10^-5), 3.91 Picomol Testosterone Reduced/m and 3.79 Picomol Testosterone Reduced/m; in the assay on 5α-reductase [1] (4: no preincubation) it was 3.66 Picomol Testosterone Reduced/m and 3.54 Picomol Testosterone Reduced/m. Besides, the “manner of combination with / inactivation of the enzyme” value with 5α-reductase [1] is “competitive and reversible”. Also, the “enzyme inactivation on preincubation” value in the assay on 5α-reductase [1] (preincubation of enzyme with compound and NADPH) is listed as “does not result in enzyme inactivation”. Moreover, the “type of inhibition of the enzyme” value in the assay on 5α-reductase [2] is “reversible and competitive inhibitor”. Further, the “males with acne showing an important decrease in sebum secretion” value in the assay with sebum secretion was 45/53. For the same compound, in assay [3], the “effect on growth of the tissue” value is listed as “inhibiting growth of the tissue”. In assay [3], the “inhibition of the enzyme in cell-culture preparations of human prostate” value is on record as “strongly inhibits the enzyme”. Also, in the assay on 5α-reductase [4], the “conversion of testosterone to dihydrotestosterone” value was “Inhibition of the conversion of testosterone to dihydrotestosterone”.
